Laboratory results: patent publication US20110112463A1, “COMPOSITIONS AND METHODS FOR TREATING A NEURONAL INJURY OR NEURONAL DISORDERS” (priority 2009, published 2011)
“Also recorded” adds a separate entry of the source.

Tested on: NMDA receptors
Assay: NMDA receptor blockade with MK-801 before intermittent photostimulation of ChR2 animals, diaphragmatic EMG
Format: in vivo, Sprague Dawley rats
From the text: Four days after C2 hemisection and/or virus injection, the animals were anesthetized as above and prepared for light treatment and physiological recordings. In a room where all light was eliminated except for that needed to accomplish the surgical procedures, approximately an eight cm incision was made at the base of the ribcage to expose the abdominal surface of the diaphragm. Bipolar electrodes, connected to an amplifier and data acquisition set-up (CED 1401/Spike2 Data Analysis Computer Interface, Cambridge Electronic Design), were inserted into both left and right hemidiaphragms to record diaphragmatic activity. After this, the cervical area of the spinal cord was reopened again for exposure to photostimulation at a wavelength of 475 nm, i.e., blue light. The light source was a portable unit capable of producing light at various wavelengths through a fiber optic cable (Model Lambda DG-4, Sutter Instrument). Diaphragmatic motor activity was recorded before, during, and after stimulation. During recording, the animals were placed on a circulating warm water blanket to maintain body temperature. The initial protocol used for photostimulation included sustained exposure (1 min) of the C3-C6 spinal cord from the light source, as well as, intermittent exposure to light at about once per second for 1 min. […] This protocol was adapted from the long-term facilitation induction protocol of 5 min normoxia followed by 5 min hypoxia (Fuller et al., 2003; Golder and Mitchell, 2005). The intermittent stimulation consisted of light exposure at 0.5 Hz, with each flash of light 1 s long.
To block NMDA receptors, 500 μl of 10 μM MK-801 (Sigma), a noncompetitive NMDA receptor antagonist, diluted in PBS, was applied to the exposed spinal cord. MK-801 was administered after 5 min of baseline recording. Recording with MK-801 continued for 5 more minutes before intermittent photostimulation and thereafter as described above.
After recording, the raw diaphragmatic EMG signal was rectified and integrated using Spike2 software. Frequency was determined by counting total breaths for 5 min before and after photostimulation. Peak amplitude and burst duration of inspiratory bursts were measured through Spike2, for at least 25 breaths before and after stimulation. Poststimulation analyses of ChR2 animals were made during regular patterned respiratory related diaphragmatic EMG activity. All values were standardized to prestimulation measures. Statistical analysis was performed using ANOVA and Tukey's post hoc analysis. All values with a p value <0.05 were considered significant. All error bars indicate SEs.

Compound: C[C@]12N[C@H](Cc3ccccc31)c1ccccc12 [MK-801]
- effect on light-induced change in diaphragmatic EMG activity (500 μl of 10 μM MK-801 in PBS on exposed C3-C6 spinal cord, ipsilateral and contralateral): failed to elicit any kind of change in diaphragmatic EMG activity; also recorded: eliminated cycling of increasing diaphragmatic EMG activity
- animals in which intermittent photostimulation failed to elicit any change in EMG activity (500 μl of 10 μM MK-801 on exposed C3-C6 spinal cord): four of six
- frequency of breaths before and after stimulation (FIG. 4A): no change
- effect on photostimulation-induced increase of peak EMG amplitude during inspiratory bursts (FIG. 4B, brought back to control levels): abolished
- effect on photostimulation-induced increase in duration of EMG inspiratory bursts (FIG. 4C, brought back to control levels): attenuated
